# Measured values published in US8304422B2, “Compositions and methods for inhibition of the JAK pathway” (Rigel Pharmaceuticals, Inc., priority 2007, dated 2012).
# System: BaF3 V617F cells; UKE-1
# Experiment: Proliferation Assay (Cell Titer-Glo; Example 7)
# Format: cell-based
# Details: proliferation 72 hours, inhibit JAK2 activity, cell line (BaF3 V617F or UKE-1) not stated
# Description: BaF3 V617F cells are maintained and plated in RPMI with 10% FBS. Plating density for these cells is 1×10^5 cells/mL.
# UKE-1 are maintained and plated in Iscove's DMEM containing 10% FBS, 10% equine serum, 1% penicillin/streptomycin and 1 uM hydrocortisone. Plating density for these cells is 0.4×10^6 cells/mL
# The cells were resuspended in a corresponding medium at a required cell density (see above). 100μ of cell suspension was added to each well of a flat bottom 96 well white plate. The compound was serially diluted in DMSO from 5 mM in 3-fold dilutions, and then diluted 1:250 in the RPMI 1640 medium containing 5% FBS and pen/strep. 100 μL of resulting 2× compound solution was added per well in duplicate and the cells were allowed to proliferate for 72 hours at 37° C.
# Proliferation was measured using Cell Titer-Glo. The substrate was thawed and allowed to come to room temperature. After removal of top 100 μL of medium from each well, 100 μL of the premixed Cell Titer-Glo reagent was added to each well. The plates were mixed on an orbital shaker for three minutes to induce lysis and incubated at ambient temperature for an additional five minutes to allow the signal to equilibrate. The Luminescence was read on the Wallac Plate Reader.
# The results of the ability of the compounds of the invention to inhibit JAK2 activity, when tested in the above assay, are shown in the following Table XI wherein the level of activity (i.e., the IC50) for each compound is indicated in Table XI. The compound numbers in Table XI refers to the compounds disclosed herein as being prepared by the methods disclosed herein: […]
row,Molecule,IC50
1,Cc1cnc(Nc2ccc(N3CCN(C)CC3)nc2)nc1Nc1ccc(CCNS(=O)(=O)C2CC2)cc1 [II-69],1810 nM
2,"COc1c(C)cc(Nc2ncc(Cl)c(Nc3ccc(CNS(=O)(=O)C4CC4)cc3)n2)cc1Cl [II-80, 5-Chloro-N2-(3-chloro-4-methoxy-5-methylphenyl]-N4-[4-(N-cyclopropylsulfonylamino)methylphenyl]-2,4-pyrimidinediamine]",188 nM
3,Cc1cnc(Nc2ccc(S(=O)(=O)C(F)(F)F)cc2)nc1Nc1ccc(CCNS(=O)(=O)C2CC2)cc1 [II-59],3140 nM
4,"COc1c(Cl)cc(Nc2ncc(Cl)c(Nc3ccc(CNS(=O)(=O)N(C)C)cc3)n2)cc1Cl [II-94, 5-Chloro-N2-[3,5-dichloro-4-methoxyphenyl]-N4-[(4-(dimethylamino)sulfonylamino)methylphenyl]-2,4-pyrimidinediamine]",13500 nM
5,"5-Chloro-N4-[3,4-dihydro-1,1-dioxide-2H-1,2-benzothiazin-7-yl]-N2-[4-(N-methylpiperizin-4-yl)phenyl]-2,4-pyrimidinediamine [VII-2]",371 nM
6,"CCNS(=O)(=O)NCc1cccc(Nc2nc(Nc3ccc(N4CCN(C)CC4)cc3)ncc2F)c1 [II-138, N4-[3-((Ethylamino)sulfonylamino)methylphenyl]-5-fluoro-N2-[4-(4-methyl-1-piperazinyl)phenyl]-2,4-pyrimidinediamine]",726 nM
7,"5-Chloro-N4-[4-(N-cyclopropylsulfonylamino)methylphenyl]-N2-[2,4-dimethyl-5-chlorophenyl]-2,4-pyrimidinediamine [II-213]",2490 nM
8,"O=S(=O)(NCc1ccc(Nc2nc(Nc3cc(C4CC4)n[nH]3)ncc2Cl)cc1)C1CC1 [VIII-12, 5-Chloro-N4-[4-(N-cyclopropylsulfonylamino)methylphenyl]-N2-[5-cyclopropylpyrazol-3-yl)-2,4-pyrimidinediamine]",879 nM
9,Cc1cnc(Nc2ccc(-c3ccccc3)cc2)nc1Nc1ccc(CCNS(=O)(=O)C2CC2)cc1 [II-75],10400 nM
10,"COc1cc(Nc2ncc(Cl)c(Nc3ccc(CNS(=O)(=O)N(C)C)cc3)n2)cc(Cl)c1OC [II-92, 5-Chloro-N2-(3-chloro-4,5-dimethoxyphenyl)-N4-[(4-(dimethylamino)sulfonylamino)methylphenyl]-2,4-pyrimidinediamine]",558 nM
11,"5-Chloro-N2-(3,5-dimethyl-5-methoxyphenyl)-N4-[(4-(dimethylamino)sulfonylamino)methylphenyl]-2,4-pyrimidinediamine [II-90]",83.6 nM
12,COc1c(C)cc(Nc2ncc(C)c(Nc3ccc4c(c3)[C@H](NS(C)(=O)=O)CC4)n2)cc1C [V-10],673 nM
13,"COc1c(C)cc(Nc2ncc(C)c(Nc3ccc4c(c3)C(NS(=O)(=O)C3CC3)CC4)n2)cc1C (racemic) [V-7, (+/−)-N4-[1-(Cyclopropylsulfonylamino)indan-6-yl]-N2-(3,5-dimethyl-4-methoxyphenyl)-5-methyl-2,4-pyrimidinediamine]",1600 nM
14,"CN1CCN(c2ccc(Nc3nccc(Nc4cccc(S(=O)(=O)NC(C)(C)C)c4)n3)cc2)CC1 [I-19, N4-[3-(N-tert-butylsulfonyl)phenyl]-N2-[4-(4-methylpiperazine)-phenyl]-2,4-pyrimidinediamine]",603 nM
15,Cc1cc(N2CCN(C)CC2)ccc1Nc1ncc(C)c(Nc2ccc(CCNS(=O)(=O)C3CC3)cc2)n1 [II-68],4140 nM
16,CCN1CCN(c2ccc(Nc3ncc(C)c(Nc4ccc(CCNS(=O)(=O)C5CC5)cc4)n3)c(C(F)(F)F)c2)CC1 [II-74],1490 nM
17,"COc1c(C)cc(Nc2ncc(Cl)c(Nc3ccc(CNS(=O)(=O)NC4CC4)cc3)n2)cc1C [II-154, 5-Chloro-N4-[4-((N-cyclopropylamino)sulfonylamino)methylphenyl]-N2-(3,5-dimethyl-4-methoxyphenyl)-2,4-pyrimidinediamine]",42.9 nM
18,"CCS(=O)(=O)N1CCc2c(cccc2Nc2nc(Nc3ccc(N4CCN(C)CC4)nc3)ncc2Cl)C1 [VI-3, 5-Chloro-N2-[6-(4-methyl-1-piperazinyl)-3-pyridinyl]-N4-[1,2,3,4-tetrahydro-2-(ethylsulfonyl)-5-isoquinolinyl]-2,4-pyrimidinediamine]",1270 nM

row,Molecule,IC50
1,"CCNS(=O)(=O)NCc1ccc(Nc2nc(Nc3cc(C)c(OC)c(C)c3)ncc2Cl)cc1 [II-108, 5-chloro-N2-(3,5-Dimethyl-4-methoxyphenyl)-N4-[(4-(ethylamino)sulfonylamino)methylphenyl]-2,4-pyrimidinediamine]",85 nM
2,"5-Chloro-N4-[3-(N-tert-butylsulfonyl)phenyl]-N2-[3,4-trimethyl-4-methoxyphenyl]-2,4-pyrimidinediamine [I-16]",17700 nM
3,"5-Chloro-N4-[4-(N-cyclopropylsulfonylamino)methylphenyl]-N2-[4-(N-methylpiperizin-4-yl)phenyl]-2,4-pyrimidinediamine [II-188]",224 nM
4,"CCNS(=O)(=O)NCc1ccc(Nc2nc(Nc3cc(OC)c(OC)c(OC)c3)ncc2C)cc1 [II-120, N4-[(4-(Ethylamino)sulfonylamino)methylphenyl]-5-methyl-N2-(3,4,5-trimethoxyphenyl)-2,4-pyrimidinediamine]",871 nM
5,"CCc1cnc(Nc2cc(OC)c(OC)c(OC)c2)nc1Nc1ccc(CNS(=O)(=O)C2CC2)cc1 [II-85, N4-[4-(N-Cyclopropylsulfonylamino)methylphenyl]-5-ethyl-N2-(3-,4,5-trimethoxylphenyl)-2,4-pyrimidinediamine]",2690 nM
6,"Cc1cc(Nc2ncc(Cl)c(Nc3ccc(CNS(N)(=O)=O)cc3)n2)ccc1N1CCN(C)CC1 [II-149, N4-[4-(Aminosulfonylamino)methylphenyl]-5-chloro-N2-[3-methyl-4-(4-methyl-1-piperazinyl)phenyl]-2,4-pyrimidinediamine]",1040 nM
7,"COc1c(C)cc(Nc2ncc(C)c(Nc3ccc(CNS(=O)(=O)C4CC4)cc3)n2)cc1C [II-201, 5-Methyl-N4-[4-(N-cyclopropylsulfonylamino)methylphenyl]-N2-[3,5-dimethyl-4-methoxyphenyl]-2,4-pyrimidinediamine]",174 nM
8,"(1R)—N2-(3,5-Dichloro-4-methoxyphenyl))-5-methyl-N4-[1-(methylsulfonyl)aminoindan-6-yl]-2,4-pyrimidinediamine [V-13]",19300 nM
9,"CCc1cnc(Nc2ccc(C3CCN(C)CC3)cc2)nc1Nc1ccc(CNS(=O)(=O)C2CC2)cc1 [II-88, N4-[4-(N-Cyclopropylsulfonylamino)methylphenyl]-5-ethyl-N2-[4-(1-methyl-4-piperidinyl)pheny]-2,4-pyrimidinediamine]",833 nM
10,Cc1cnc(Nc2ccc(OCCN3CC(C)OC(C)C3)cc2)nc1Nc1ccc(CCNS(=O)(=O)C2CC2)cc1 (stereo not drawn) [II-65],327 nM
11,"CCCOc1c(C)cc(Nc2ncc(C)c(Nc3ccc(CNS(=O)(=O)NC4CC4)cc3)n2)cc1C [II-165, N4-[4-((N-Cyclopropylamino)sulfonylamino)methylphenyl]-N2-(3,5-dimethyl-4-propoxyphenyl)-5-Methyl-2,4-pyrimidinediamine]",323 nM
12,"CCNS(=O)(=O)NCc1ccc(Nc2nc(Nc3cc(C)c(OC)c(Cl)c3)ncc2C)cc1 [II-118, N2-(3-Chloro-4-methoxy-5-methylphenyl)-N4-[(4-(ethylamino)sulfonylamino)methylphenyl]-5-methyl-2,4-pyrimidinediamine]",229 nM
13,"CCNS(=O)(=O)NCc1cccc(Nc2nc(Nc3cc(C)c(OC)c(C)c3)ncc2F)c1 [II-137, N2-(3,5-Dimethyl-4-methoxyphenyl)-N4-[(3-(ethylamino)sulfonylamino)methylphenyl]-5-fluoro-2,4-pyrimidinediamine]",541 nM
14,"CCc1cnc(Nc2cc(C)c(OC)c(C)c2)nc1Nc1ccc(CNS(=O)(=O)C2CC2)cc1 [II-81, N4-[4-(N-Cyclopropylsulfonylamino)methylphenyl]-N2-(3,5-dimethyl-4-methoxyphenyl)-5-ethyl-2,4-pyrimidinediamine]",1100 nM
15,"COc1c(Cl)cc(Nc2ncc(C)c(Nc3ccc4c(c3)C(NS(=O)(=O)C3CC3)CC4)n2)cc1Cl (racemic) [V-8, (+/−)-N4-[1-(Cyclopropylsulfonylamino)indan-6-yl]-N2-(3,5-dichloro-4-methoxyphenyl)-5-methyl-2,4-pyrimidinediamine]",3030 nM
16,"CS(=O)(=O)N1CCN(c2ccc(Nc3ncc(Cl)c(Nc4ccc(CCNS(=O)(=O)C5CC5)cc4)n3)c(C(F)(F)F)c2)CC1 [II-55, 5-Chloro-N4[4-(N-cyclopropylsulfonylamino)ethylphenyl]-N2-[4-(4-methylsulfonylpiperazino)-2-trifluoromethylphenyl]-2,4-pyrimidinediamine]",8880 nM
17,"CCNS(=O)(=O)NCc1ccc(Nc2nc(Nc3cc(C)c(OC)c(Cl)c3)ncc2Cl)cc1 [II-110, 5-Chloro-N2-(3-chloro-4-methoxy-5-methylphenyl)-N4-[(4-(ethylamino)sulfonylamino)methylphenyl]-2,4-pyrimidinediamine]",601 nM
18,"Cc1cnc(Nc2ccc(C3CCN(C)CC3)cc2)nc1Nc1ccc2c(c1)[C@H](NS(C)(=O)=O)CC2 [V-11, (1R)-5-Methyl-N2-[4-(1-methyl-4-piperidinyl)pheny]-N4-[1-(methylsulfonyl)aminoindan-6-yl]-2,4-pyrimidinediamine]",2160 nM
